How the values were obtained:
[1] = tested on: bone marrow derived macrophages (BMDMs); assay: CCK-8 cell viability of BMDMs; format: cell-based, C57BL/6 mice; settings: Mus musculus, BMDM, 24 hr, read-out: IC50, cell survival of BMDMs
Description: (§1) Bone marrow-derived macrophages (BMDMs) were isolated from healthy 10-14-week-old C57BL/6 male mice. Briefly, mice were euthanized by isoflurane overdose. Femurs were cleared of muscle and debris. The epiphyses of the femurs were cut and placed knee-down and spun down in a 1.5 mL tube. Bone marrow was collected and resuspended in complete DMEM (cDMEM; 10% FBS, 1% penicillin/streptomycin) and passed through two 100 μm strainers. Cells were plated on an untreated 10 cm dish in cDMEM and allowed to incubate at 37° C. for 4 hr. Adherent/mature monocytes and dendritic cells were discarded, while floating/immature monocytes were collected. Cells were subjected to RBC lysis and resuspended in bone marrow maintenance media (BMMM; 20% L929-conditioned media in cDMEM). Cells were then plated on surface-treated 6-well plates at a 250 k cells/well seeding density. On day 3, fresh BMMM was added. On day 5, media was aspirated and fresh BMMM was added. […] Cells were stained and analyzed for macrophages via flow cytometry as described above with the addition of analyzing macrophage phenotypes. From the CD11b^+CD68^+ macrophage population, macrophage phenotypes were determined based on CD206 and CD11c expression. […] All cells were measured using a FACS Aria II (BD) and analyzed using FlowJo (BD Biosciences). […]

[2] = tested on: DSS-induced chronic colitis; assay: DSS mouse model, Experiment 1: chronic colitis; format: in vivo, C57BL/6 female mice
Description: Experiment 1—Chronic Colitis: 14-week-old C57BL/6 female mice were given 3 cycles of DSS. Each cycle consisted of 7 days on DSS (cycle 1: 1%; cycle 2: 1.5%, cycle 3: 1%), immediately followed by 7 days of regular drinking water. Either vehicle or panaxynol was administered 3×/week beginning on the day prior to the first DSS cycle (day −1) until study completion (FIG. 9A). To ensure the induction of colitis and to quantify disease states, colitis symptoms were monitored 3×/week using a pre-established disease activity index (DAI), which quantifies bodyweight loss, stool consistency, and rectal bleeding to produce an overall symptom score; a higher score correlates with worsened disease. Mice were euthanized on day 42—one day after the last dose of panaxynol was given. Data presented in FIG. 9A-9F was obtained from 2 cohorts of Experiment 1—Chronic Colitis.
Panaxynol (PA; C17H24O) was purchased from Biopurify Pytochemicals Ltd in sealed 5 mg/mL vials in pure 95% ethanol and stored at −20° C. PA was prepared fresh on the day of treatment by diluting in H2O to 1 mg/mL for administration (p.o.) at a dosage of 2.5 mg/kg. This dosage was chosen following a pilot dose-response study to determine PA's efficacy. PA or VEH was administered 3×/week via oral gavage using flexible plastic tubing gavage needles (Instech, Cat #FTP-20) for a total of 12 weeks.
All mice underwent the same symptom monitoring and scoring. Body weights and symptom scores were determined […] to quantify disease state, with a higher score indicative of a worsened disease state. Symptom scores were calculated by scoring percent body weight loss, stool consistency, and rectal bleeding as previously described. Briefly, fresh colonic evacuates were smeared onto “Hemoccult” tape (Beckman Coulter) to assess severity of diarrhea and were tested with developer (Beckman Coulter) to assess rectal bleeding. Stool consistency was scored as follows: solid cylinder (0), soft cylinder and easily spreadable (2), and noncylindrical or runny (4). Bleeding was scored as follows: no positive detection of blood (0), detection of blood but not grossly visible (2), and gross visibility of blood (4). Body weight was calculated as percent bodyweight loss: 0%-5% (0), 6%-10% (1), 11%-15% (2), 15%-20% (3), 20%-25% (4), and >25% (5). Scores of all three categories were summed to obtain an overall symptom score for each mouse.
Prior to euthanasia, colonoscopies were performed (n=3/group) to visualize the colonic tissue and quantify the severity of disease (colitis and colorectal tumors) using an established protocol. Briefly, mice were anesthetized with isoflurane to perform a detailed endoscopic examination in which the endoscope was gently inserted into the rectum and through the anus. Air was applied to slowly set apart the intestinal walls for examination. As the scope advanced, pictures were taken frequently and the following were meticulously assessed and scored by the blinded primary investigator using the well-established scoring system to integrate evaluation of intestinal inflammation (i.e., focal lesions (edematous areas of mucosa, erosions/reddened areas, ulcers), perianal region findings (diarrhea, bloody anal discharge, or prolapse), transparency of the colonic wall (visualization of the intramural blood vessels), and presence of intestinal bleeding) and tumors. Scoring was performed as previously described with no modifications. Upon completion of colonoscopies, mice were placed on a warm pad set at 37° C. for 5 min.

[3] = tested on: BMDMs treated with C26 CM; assay: Survival of BMDMs cultured with C26 tumor conditioned media; format: cell-based, C57BL/6 mice; settings: 48 hr
Description: as §1

[4] = tested on: BMDMs cultured with C26 CM; assay: Macrophage polarization of BMDMs cultured with C26 CM (flow cytometry); format: cell-based, C57BL/6 mice; settings: 48 hr, PA vs VEH
Description: Bone marrow-derived macrophages (BMDMs) were isolated from healthy 10-14-week-old C57BL/6 male mice. Briefly, mice were euthanized by isoflurane overdose. Femurs were cleared of muscle and debris. The epiphyses of the femurs were cut and placed knee-down and spun down in a 1.5 mL tube. Bone marrow was collected and resuspended in complete DMEM (cDMEM; 10% FBS, 1% penicillin/streptomycin) and passed through two 100 μm strainers. Cells were plated on an untreated 10 cm dish in cDMEM and allowed to incubate at 37° C. for 4 hr. Adherent/mature monocytes and dendritic cells were discarded, while floating/immature monocytes were collected. Cells were subjected to RBC lysis and resuspended in bone marrow maintenance media (BMMM; 20% L929-conditioned media in cDMEM). Cells were then plated on surface-treated 6-well plates at a 250 k cells/well seeding density. On day 3, fresh BMMM was added. On day 5, media was aspirated and fresh BMMM was added. For M2 macrophage polarization experiments, 6-day mature macrophages were given either cDMEM+VEH, M2 media (cDMEM with 10 ng/mL IL-4)+VEH, or M2 media+1 μM PA. Cells were incubated for 24 hr. For C26 colon tumor conditioned media (C26 CM) experiments, 6-day mature macrophages were given either serum-free media (SFM)+VEH, 33% C26-conditioned media (C26 CM)+VEH, or 33% C26 CM+1, 2.5, or 5 μM PA. Cells were incubated for 48 hr. After incubation with these different treatments, cells were washed twice with PBS and incubated with 5 mM EDTA PBS at 4° C. for 20 min. Cells were then gently scraped and transferred into flow tubes, spun at 1600 rpm at 4° C. for 5 min, and washed in PBS before antibody staining. Cells were stained and analyzed for macrophages via flow cytometry as described above with the addition of analyzing macrophage phenotypes. From the CD11b^+CD68^+ macrophage population, macrophage phenotypes were determined based on CD206 and CD11c expression. CD206^−CD11c^− cells were identified as M0 macrophages; CD206^−CD11c^+ as M1 macrophages; CD206^+CD11c^− cells as M2 macrophages; CD206^+CD11c^+ as M1-M2 transitional macrophages. All cells were measured using a FACS Aria II (BD) and analyzed using FlowJo (BD Biosciences). Three independent experiments were carried out for each in vitro assessment.

## C=CC(O)C#CC#CC/C=C\CCCCCCC (stereo in doubt) [PA, 3(R)-(9Z)-heptadeca-1,9-dien-4,6-diyn-3-ol]
[1]
  IC50: ~7 µM
[2]; DAI, vs DSS+Veh
  rectal bleeding: decreased
  stool consistency: improved
[2]; day 42, vs DSS+Veh, p=0.001
  reduction in ulcerations (endoscopic score): 65%
[2]; day 42, vs DSS+Veh, p=0.005
  reduction in total lesions (endoscopic score): 70%
[2]; day 42, vs DSS+Veh, p=0.016
  reduction in inflammation (endoscopic score): 54%
  reduction in total endoscopic scores: 52%
[2]; day 42, vs DSS+Veh, p=0.017
  reduction in erosions (endoscopic score): 74%
[2]; end of study, not significant vs DSS+Veh 20.7±0.4, p=0.862
  body weight: 20.3 ± 0.7 g
[2]; throughout treatment, vs DSS+Veh
  DAI scores: significantly (p≤0.05) improved
[3]; 1 μM PA
  reduction of macrophage survival: 31.5%
[3]; 5 μM PA
  reduction of macrophage survival: 45.3%
[4]
  relative abundance of M0 macrophages: No significant differences
  relative abundance of M1-M2 macrophages: No significant differences
  relative abundance of M1 macrophages: No significant differences
[4]; p≤0.05
  relative abundance of pro-tumoral M2 macrophages: significantly reduced

— US20240091169A1, “POL[…] FOR TREATING INFLAMMATORY DISEASES” (UNIVERSITY OF SOUTH CAROLINA, priority 2022, published 2024)
